Laboratory results published in ChEMBL document CHEMBL1149968, “Synthesis and in vitro cytotoxicity of cis-dichloro[(2S,3R,4S)-2-aminomethyl-3,4-(O-isopropylidene)dihydroxy- or -3,4-dihydroxypyrrolidine]platinum(II)” (Bioorg Med Chem Lett, 1996).
pIC50: −log10 of the molar value.

Columns and labels:
A549 = assay: In vitro cytotoxicity against lung cancer A 549 cell lines; format: functional, cell-based, Homo sapiens
L1210 [1] = assay: In vitro cytotoxicity against Cisplatin resistant L1210/CPR leukemia cell lines.; format: functional, cell-based, Mus musculus
L1210 [2] = assay: In vitro cytotoxicity against Cisplatin sensitive L1210/parent leukemia cell lines.; format: functional, cell-based, Mus musculus
SK-OV-3 = assay: In vitro cytotoxicity against ovarian cancer SK-OV-3 cell lines; format: functional, cell-based, Homo sapiens
XF498 = assay: In vitro cytotoxicity against CNS cancer XF 498 cell lines; format: functional, cell-based, Homo sapiens
[3] = Relative resistance calculated as the ratio of IC50 of resistant sublime to that of IC50 of parent cell line.; format: functional

Row | Substance | pIC50 (A549) | pIC50 (L1210 [1]) | pIC50 (L1210 [2]) | pIC50 (SK-OV-3) | pIC50 (XF498) | Relative resistance [3]
1 | CARBOPLATIN [listing 1 of 2 here] | 4.42 | 4.34 | 5.70 | 4.86 | 4.87 | –
2 | CARBOPLATIN [listing 2 of 2 here] | – | – | – | – | – | 22.7
3 | CISPLATIN [listing 1 of 2 here] | 5.49 | 5.47 | – | – | 5.54 | –
4 | CISPLATIN [listing 2 of 2 here] | – | – | – | – | – | 34
5 | cis-Dichloro[(2S,3R,4S)-2-aminomethyl-3,4-(O-isopropylidene)dihydrxypyrrolidine]platinum (II) [listing 1 of 2 here] | 4.96 | 5.80 | 6.52 | 5.11 | 5.21 | –
6 | cis-Dichloro[(2S,3R,4S)-2-aminomethyl-3,4-(O-isopropylidene)dihydrxypyrrolidine]platinum (II) [listing 2 of 2 here] | – | – | – | – | – | 5.3
7 | cis-Dichloro[(2S,3R,4S)-2-aminomethyl-3,4-dihydroxypyrrolidine]platinum (II) [listing 1 of 2 here] | 4.49 | 4.96 | 5.85 | 4.81 | 4.83 | –
8 | cis-Dichloro[(2S,3R,4S)-2-aminomethyl-3,4-dihydroxypyrrolidine]platinum (II) [listing 2 of 2 here] | – | – | – | – | – | 7.8
